Where two headings read alike, the source gives them in different places.
How the values were obtained:
Type in all cases: cell-based
[1] = tested on: peripheral blood mononuclear cells (PBMCs); experiment: Antiproliferative/cytotoxicity assay on PBMCs from a healthy donor; conditions: Homo sapiens, PBMC
Method: To assess the potential toxicity of the most promising quinoline derivatives 4i, 4n, 4s, and 4ah, an antiproliferative assay was performed, using peripheral blood mononuclear cells (PBMCs) isolated from a healthy donor.
(§1) To test the newly synthesized compounds, various human cell lines were employed. HD‐MB03 cells were purchased from DSMZ (Braunschweig, Germany), while A549, MDA‐MB‐231, RPMI‐8420, SU‐DHL‐8, TOLEDO, VL51, SU‐DHL‐1, SU‐DHL‐18, and KM‐H2 were obtained from ATCC (Manassas, VA, USA). Cells were cultured in DMEM (for MDA‐MB‐231 and A549) or RPMI‐1640 (for RPMI‐8420, SU‐DHL‐8, TOLEDO, VL51, SU‐DHL‐1, SU‐DHL‐18, KM‐H2, and HD‐MB03) media (Gibco, Milan, Italy). Both media were supplemented with 115 units/mL penicillin G (Gibco, Milan, Italy), 115 µg/mL streptomycin (Invitrogen, Milan, Italy), and 10% fetal bovine serum (Invitrogen, Milan, Italy). Peripheral blood mononuclear cells (PBMCs) were isolated from healthy donors as previously described. For cytotoxicity assays, PBMCs were resuspended at 5 × 10⁵ cells/mL in complete RPMI medium with or without 2.5 µg/mL phytohemagglutinin (PHA) (Irvine Scientific) to stimulate T‐cell activation and proliferation. All cell lines were maintained at 37°C in a humidified atmosphere containing 5% CO₂. All compounds were dissolved in DMSO at a 10 mM stock concentration. For dose–response assays, cells were seeded in 96‐well plates at densities optimized for each cell line: HD‐MB03 at 10,000 cells/well, A549 at 4000 cells/well, and MDA‐MB‐231 at 7000 cells/well. All other cell lines were seeded at 20,000 cells/well in a final volume of 100 µL per well. After 24 h, cells were treated with a 6‐point serial dilution of compounds starting from 10 µM, in triplicate for statistical analysis. Seventy‐2 h posttreatment, 10 µL of resazurin solution (100 µg/mL) was added to each well, and cells were incubated for an additional 3–6 h. Fluorescence was measured using a Spark 10 M microplate reader (Tecan Group Ltd., Männedorf, Switzerland) with excitation at 535 nm and emission at 600 nm. The IC₅₀ was defined as the concentration of compound required to inhibit cell proliferation by 50% compared to cells treated with the highest DMSO concentration.
(§2) To test the newly synthesized compounds, various human cell lines were employed. HD-MB03 cells were purchased from DSMZ (Braunschweig, Germany), while A549, MDA-MB-231, RPMI-8420, SU-DHL-8, TOLEDO, VL51, SU-DHL-1, SU-DHL-18, and KM-H2 were obtained from ATCC (Manassas, VA, USA). Cells were cultured in DMEM (for MDA-MB-231 and A549) or RPMI-1640 (for RPMI-8420, SU-DHL-8, TOLEDO, VL51, SU-DHL-1, SU-DHL-18, KM-H2, and HD-MB03) media (Gibco, Milan, Italy). Both media were supplemented with 115 units/mL penicillin G (Gibco, Milan, Italy), 115 µg/mL streptomycin (Invitrogen, Milan, Italy), and 10% fetal bovine serum (Invitrogen, Milan, Italy). Peripheral blood mononuclear cells (PBMCs) were isolated from healthy donors as previously described. ^[1] For cytotoxicity assays, PBMCs were resuspended at 5 × 10⁵ cells/mL in complete RPMI medium with or without 2.5 µg/mL phytohemagglutinin (PHA) (Irvine Scientific) to stimulate T cell activation and proliferation. All cell lines were maintained at 37 °C in a humidified atmosphere containing 5% CO₂. All compounds were dissolved in DMSO at a 10 mM stock concentration. For dose–response assays, cells were seeded in 96-well plates at densities optimized for each cell line: HD-MB03 at 10,000 cells/well, A549 at 4,000 cells/well, and MDA-MB-231 at 7,000 cells/well. All other cell lines were seeded at 20,000 cells/well in a final volume of 100 µL per well. After 24 hours, cells were treated with a 6-point serial dilution of compounds starting from 10 µM, in triplicate for statistical analysis. Seventy-two hours post-treatment, 10 µL of resazurin solution (100 µg/mL) was added to each well, and cells were incubated for an additional 3–6 hours. […]

KM-H2 = experiment: Antiproliferative activity on lymphoma-derived cell lines, resazurin; conditions: Homo sapiens, Hodgkin lymphoma, 72 h of treatment, mean ± SEM
Method: as §1
as §2, with “hours. Fluorescence was measured using a Spark 10M microplate reader (Tecan Group Ltd., Männedorf, Switzerland) with excitation at 535 nm and emission at 600 nm.” for “hours.”

TOLEDO = experiment: as above; conditions: Homo sapiens, diffuse large B-cell lymphoma, 72 h of treatment, mean ± SEM
Method: as §1
as §2, with “hours. Fluorescence was measured using a Spark 10M microplate reader (Tecan Group Ltd., Männedorf, Switzerland) with excitation at 535 nm and emission at 600 nm.” for “hours.”

VL51 = experiment: as above; conditions: Homo sapiens, splenic B-cell lymphoma, 72 h of treatment, mean ± SEM
Method: as §1
as §2, with “hours. Fluorescence was measured using a Spark 10M microplate reader (Tecan Group Ltd., Männedorf, Switzerland) with excitation at 535 nm and emission at 600 nm.” for “hours.”

[2] = PBMCs stimulated with 2.5 µg/mL PHA, read-out: IC50 phytohemagglutinin-stimulated PBMCs
[3] = resting PBMCs from a healthy donor, read-out: IC50 resting PBMCs

Structure (SMILES) | IC50 [1, 2] | IC50 [1, 3] | IC50 (KM-H2) | IC50 (TOLEDO) | IC50 (VL51)
O=C(Nc1ccc(Cl)cc1)c1cc(/C=C/c2ccccc2[N+](=O)[O-])nc2ccccc12 [4ah, (E)-N-(4-chlorophenyl)-2-(2-nitrostyryl)quinoline-4-carboxamide] | > 10 µM | > 10 µM | 6.74 ± 2.12 µM | 4.93 ± 0.62 µM | > 10 µM
O=C(Nc1ccc([N+](=O)[O-])cc1)c1cc(/C=C/c2ccccc2)nc2ccccc12 [4i, (E)-N-(4-nitrophenyl)-2-styrylquinoline-4-carboxamide] | > 10 µM | > 10 µM | 2.8 ± 0.21 µM | 1.05 ± 0.09 µM | 1.03 ± 0.02 µM
COc1cc(/C=C/c2cc(C(=O)Nc3c(C)cccc3C)c3ccccc3n2)cc(OC)c1OC [4n, (E)-N-(2,6-dimethylphenyl)-2-(3,4,5-trimethoxystyryl)quinoline-4-carboxamide] | > 10 µM | > 10 µM | > 10 µM | > 10 µM | > 10 µM
COc1cc(/C=C/c2cc(C(=O)Nc3ccc([N+](=O)[O-])cc3)c3ccccc3n2)cc(OC)c1OC [4s, (E)-N-(4-nitrophenyl)-2-(3,4,5-trimethoxystyryl)quinoline-4-carboxamide] | > 10 µM | > 10 µM | > 10 µM | > 10 µM | > 10 µM

— article PMC12645083, “Microwave‐Enhanced Synthesis of 2‐Styrylquinoline‐4‐Carboxamides With Promising Anti‐Lymphoma Activity” (Archiv Der Pharmazie, 2025)
